Laboratory results published in ChEMBL document CHEMBL5512601, “Small-molecule inhibitors targeting apoptosis signal-regulated kinase 1” (Eur J Med Chem, 2023).
pEC50, pIC50: −log10 of the molar value. Blank lines part the entries; values can stand above or below the molecule they belong to.

Legend:
[1] = target: T1, Mitogen-activated protein kinase kinase kinase 5 (Homo sapiens, UniProt Q99683); test: Inhibition of ASK1 (unknown origin)
T1 sequence (Q99683 whole entry): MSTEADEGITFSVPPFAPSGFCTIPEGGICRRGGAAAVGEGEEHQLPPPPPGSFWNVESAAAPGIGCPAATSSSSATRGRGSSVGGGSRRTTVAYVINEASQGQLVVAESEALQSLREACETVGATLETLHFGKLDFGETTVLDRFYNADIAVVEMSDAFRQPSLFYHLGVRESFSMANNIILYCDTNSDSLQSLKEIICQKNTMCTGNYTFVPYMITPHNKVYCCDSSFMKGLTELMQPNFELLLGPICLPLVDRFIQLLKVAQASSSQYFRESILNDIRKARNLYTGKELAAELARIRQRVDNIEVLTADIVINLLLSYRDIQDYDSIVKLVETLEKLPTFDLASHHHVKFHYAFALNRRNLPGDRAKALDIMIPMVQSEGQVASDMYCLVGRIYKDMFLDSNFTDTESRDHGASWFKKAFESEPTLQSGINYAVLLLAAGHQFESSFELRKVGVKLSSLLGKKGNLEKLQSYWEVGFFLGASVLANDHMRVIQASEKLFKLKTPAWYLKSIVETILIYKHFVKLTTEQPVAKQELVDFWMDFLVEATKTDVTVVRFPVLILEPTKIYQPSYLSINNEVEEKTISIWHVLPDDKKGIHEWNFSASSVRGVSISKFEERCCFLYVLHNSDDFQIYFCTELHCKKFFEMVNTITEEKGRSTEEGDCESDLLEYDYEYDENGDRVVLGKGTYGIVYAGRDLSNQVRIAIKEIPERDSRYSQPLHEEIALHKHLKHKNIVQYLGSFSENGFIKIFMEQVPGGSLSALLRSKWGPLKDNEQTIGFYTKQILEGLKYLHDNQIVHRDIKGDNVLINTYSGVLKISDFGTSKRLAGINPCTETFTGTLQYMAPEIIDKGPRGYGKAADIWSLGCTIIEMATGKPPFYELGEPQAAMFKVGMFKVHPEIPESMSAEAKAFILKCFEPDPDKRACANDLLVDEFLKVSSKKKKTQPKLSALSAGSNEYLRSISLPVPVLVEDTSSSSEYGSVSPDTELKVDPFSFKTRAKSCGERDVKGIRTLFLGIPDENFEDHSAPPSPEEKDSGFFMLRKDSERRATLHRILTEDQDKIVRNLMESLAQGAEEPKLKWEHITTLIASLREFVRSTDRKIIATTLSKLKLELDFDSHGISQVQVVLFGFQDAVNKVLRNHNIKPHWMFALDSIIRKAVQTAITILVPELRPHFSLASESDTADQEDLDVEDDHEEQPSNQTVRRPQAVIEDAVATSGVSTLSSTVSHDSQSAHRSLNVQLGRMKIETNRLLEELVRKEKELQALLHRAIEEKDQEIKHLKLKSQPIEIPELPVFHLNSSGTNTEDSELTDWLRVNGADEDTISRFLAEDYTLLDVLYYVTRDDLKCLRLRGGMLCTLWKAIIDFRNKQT

[2] = target: T1, Mitogen-activated protein kinase kinase kinase 5; test: Inhibition of ASK1 (unknown origin) preincubated with compound for 30 mins followed by ATP addition and measured after 120 mins by HTRF analysis
[3] = target: T1, Mitogen-activated protein kinase kinase kinase 5; test: Inhibition of ASK1 (unknown origin) incubated for 0.5 to 5 hrs by TR-FRET assay
[4] = target: T1, Mitogen-activated protein kinase kinase kinase 5; test: Inhibition of N-terminal his-tagged human ASK1 (649 to 946 residues) expressed in Escherichia coli using [gamma-32p]ATP as substrate by liquid scintillation counting analysis
[5] = target: T1, Mitogen-activated protein kinase kinase kinase 5; test: Inhibition of human ASK1 using STK-substrate biotin as substrate by TR-FRET assay
[6] = target: T1, Mitogen-activated protein kinase kinase kinase 5; test: Inhibition of human recombinant ASK1 by HTRF assay
[7] = target: 3-phosphoinositide-dependent protein kinase 1 (Homo sapiens) (UniProt O15530); test: Inhibition of PDK1 (unknown origin) at 10 uM relative to control
[8] = target: T1, Mitogen-activated protein kinase kinase kinase 5; test: Inhibition of human ASK1
[9] = Toxicity in C57BL/6J mouse harboring SOD1 mutant assessed as animal survival (reference value: 1.06%); conditions: in vivo, read-out: Activity
[10] = target: T1, Mitogen-activated protein kinase kinase kinase 5; test: Inhibition of full length GST-tagged recombinant human ASK1 using MBP as substrate incubated for 20 mins by cell based assay
[11] = target: T1, Mitogen-activated protein kinase kinase kinase 5; test: Inhibition of ASK1 in HEK293 cells; assay type: cell-based
[12] = Apparent permeability of compound across apical to basolateral side in human Caco2 cells; assay type: ADME, cell-based; conditions: Caco-2
[13] = Half life in Sprague-Dawley rat at 1 mg/kg, iv by LC-MS/MS analysis; assay type: ADME, organism-based; conditions: in vivo
[14] = Oral bioavailability in Sprague-Dawley rat at 1 mg/kg by LC-MS/MS analysis; assay type: ADME, organism-based; conditions: in vivo

3-phosphoinositide-dependent protein kinase 1 (Homo sapiens), sequence (O15530 whole entry, looked up): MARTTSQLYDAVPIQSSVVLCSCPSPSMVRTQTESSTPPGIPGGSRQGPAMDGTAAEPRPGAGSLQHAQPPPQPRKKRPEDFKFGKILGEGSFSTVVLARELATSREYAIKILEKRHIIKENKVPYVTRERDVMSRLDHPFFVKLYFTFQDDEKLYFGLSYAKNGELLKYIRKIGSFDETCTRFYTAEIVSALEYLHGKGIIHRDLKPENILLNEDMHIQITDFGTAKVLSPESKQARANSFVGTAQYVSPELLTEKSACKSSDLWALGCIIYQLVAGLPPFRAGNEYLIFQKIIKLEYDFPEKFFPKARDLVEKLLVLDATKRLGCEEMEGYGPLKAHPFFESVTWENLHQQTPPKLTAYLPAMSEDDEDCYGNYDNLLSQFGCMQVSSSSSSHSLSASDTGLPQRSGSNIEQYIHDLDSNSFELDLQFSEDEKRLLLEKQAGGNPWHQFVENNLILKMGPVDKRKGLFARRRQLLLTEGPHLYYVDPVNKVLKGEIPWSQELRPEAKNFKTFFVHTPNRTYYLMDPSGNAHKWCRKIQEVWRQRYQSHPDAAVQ

Compound: CC(C)n1cnnc1-c1cccc(NC(=O)c2cc3c(cc2F)CNCc2nc(C4CC4)cn2-3)n1
pIC50 [1]: > 8.00

Compound: CC(C)n1cnnc1-c1cccc(NC(=O)c2cc3c(cc2F)CNCc2c(C4CC4)ncn2-3)n1
pIC50 [1]: > 8.00

Compound: CC(C)n1cnnc1-c1cccc(N2CCc3ccc(-n4cnc(C5CC5)c4)cc3C2=O)n1
pIC50 [1]: 8.74

Compound: CC(C)n1cnnc1-c1cccc(-c2coc3ccc(-n4cnc(C5CC5)c4)cc3c2=O)n1
pIC50 [2]: 8.94

Compound: CC(C)n1cnnc1-c1nc(NC(=O)c2cc3c(cc2F)C(=O)NCc2nc(C4CC4)cn2-3)cs1
pIC50 [1]: < 7.30

Compound: Cc1ccc(NC(=O)Nc2cccc(-c3nncn3C(C)C)n2)c(F)c1
pEC50 [5]: ≥ 6.30

Compound: Cc1ccc(-c2cnc(-c3cccc(-c4nncn4C(C)C)n3)o2)c(F)c1
pIC50 [6]: ≥ 7.30

Compound: CC(C)n1cnnc1-c1cccc(-n2cnc3ccc(-n4cnc(C5CC5)c4)cc3c2=O)n1
pIC50 [2]: 7.96

Compound: Cc1cc(F)c(C(=O)Nc2cccc(-c3nnc4ncncn34)n2)cc1-n1cnc(C2CC2)c1
pIC50 [3]: 7.85

Compound: Cc1ccc(N(C)C(=O)Nc2cccc(-c3nncn3C(C)C)n2)c(F)c1
pEC50 [5]: ≥ 5.30

Compound: C=C(C)[C@@H]1CC[C@]2(C(=O)O)CC[C@]3(C)[C@H](C[C@H]4OC(=O)C[C@@H](O)[C@]5(C)[C@@H]4[C@@]3(C)CC[C@H]5C(=C)C)[C@@H]12
pIC50 [4]: 6.43

Compound: CC(C)n1cnnc1-c1cccc(NC(=S)Nc2ccccn2)n1
pIC50 [6]: 7.30
pEC50 [5]: ≥ 6.30

Compound: CC(C)n1cnnc1-c1cccc(C(=O)Nc2cc(-n3cnc(C4CC4)c3)ccn2)n1
pIC50 [6]: 9.15

Compound: Cc1cc(F)c(C(=O)Nc2cccc(-c3nnc4[nH]ccn34)n2)cc1-n1cnc(C2CC2)c1
pIC50 [3]: 8.17

Compound: COc1cc2ccn(-c3cccc(-c4nncn4C(C)C)n3)c(=O)c2cc1-n1cnc(C2CC2)c1
pIC50 [1]: 8.78

Compound: CC(C)n1cnnc1-c1cccc(-c2cn(C)c3ccc(-n4cnc(C5CC5)c4)cc3c2=O)n1
pIC50 [2]: 8.86

Compound: COc1cc2nncc(Oc3ccc(NC(=O)c4cn(C(C)C)c5c(c4=O)CCC=C5)cc3)c2cc1OC
pIC50 [8]: 8.22
survival [9]: 1.08%

Compound: Cc1ccc(-c2cnc(-c3cccc(-c4nncn4C(C)C)n3)s2)c(F)c1
pIC50 [6]: 7.30

Compound: CC(C)n1cnnc1-c1cccc(N2Cc3ccc(-n4cnc(C5CC5)c4)cc3C2=O)n1
pIC50 [1]: 9.03

Compound: CC(C)n1cnnc1-c1cccc(-n2ncc3ccc(-n4cnc(C5CC5)c4)cc3c2=O)n1
pIC50 [2]: 9.05

Compound: CC(C)n1cnnc1-c1cccc(NC(=O)c2cc(-n3cnc(C4CC4)c3)ccn2)c1
inhibition [7]: 0.04%

Compound: COc1cc2nccc(Oc3ccc(NC(=O)c4cn(C(C)C)c5c(c4=O)CCC=C5)cc3)c2cc1OC
pIC50 [8]: 8.22
survival [9]: 1.09%

Compound: Cc1ccc(-n2ccn(-c3cccc(-c4nncn4C(C)C)n3)c2=O)c(F)c1
pIC50 [6]: 7.30
pEC50 [5]: ≥ 6.30

Compound: CC(C)n1cnnc1-c1nc(NC(=O)c2cc3c(cc2F)CNCc2nc(C4CC4)cn2-3)cs1
pIC50 [1]: < 7.30

Compound: CC(C)n1cnnc1-c1cccc(-n2ccc3ccc(-n4cnc(C5CC5)c4)cc3c2=O)n1
pIC50 [1]: 8.57

Next, values leading:

pIC50 [3]: 7.32
Compound: Cc1cc(F)c(C(=O)Nc2cccc(-c3nnc4n3CCNC4)n2)cc1-n1cnc(C2CC2)c1

pIC50 [2]: 8.37
Compound: CC(C)n1cnnc1-c1cccc(N2CCOc3ccc(-n4cnc(C5CC5)c4)cc3C2=O)n1

pIC50 [4]: 8.69
Compound: C=C(C)[C@@H]1CC[C@]2(C(=O)N(CCOCCOn3nnc4ccccc43)C(=O)OC(C)(C)C)CC[C@]3(C)[C@H](C[C@H]4OC(=O)C[C@@H](O)[C@]5(C)[C@@H]4[C@@]3(C)CC[C@H]5C(=C)C)[C@@H]12

pIC50 [1]: 5.58
inhibition [7]: 42.9%
Compound: Cn1nc(C(F)(F)F)c2cc(C(=O)Nc3cccc(-c4nncn4C4CC4)n3)c(=O)[nH]c21

pIC50 [1]: > 8.00
Compound: CC(C)n1cnnc1-c1cccc(NC(=O)c2cc3c(cc2F)COCc2nc(C4CC4)cn2-3)n1

pIC50 [1]: 8.29
pIC50 [3]: 8.41
Compound: CC(C)n1nnnc1-c1cccc(N2C(=O)c3cc(-n4cnc(C5CC5)c4)ccc3C2(C)C)n1

pIC50 [1]: > 8.00
Compound: CC(C)n1cnnc1-c1cccc(NC(=O)c2cc3c(cc2F)CNCCc2c(C4CC4)ncn2-3)n1

pIC50 [4]: 6.39
Compound: C=C(C)[C@@H]1CC[C@]2(C(=O)O)CC[C@]3(C)[C@H](C[C@@H](O)[C@@H]4[C@@](C)([C@H](O)CC(=O)O)[C@H](C(=C)C)CC[C@]43C)[C@@H]12

pIC50 [3]: 8.39
Compound: Cc1cc(F)c(C(=O)Nc2cccc(-c3nnc4sccn34)n2)cc1-n1cnc(C2CC2)c1

pIC50 [4]: 8.29
Compound: C=C(C)[C@@H]1CC[C@]2(C(=O)On3nnc4ccccc43)CC[C@]3(C)[C@H](C[C@@H](O)[C@@H]4[C@@]5(C)C(CC(=O)OCC)OC(C)(C)C5CC[C@]43C)[C@@H]12 (stereo partly specified)

pIC50 [4]: 6.35
Compound: C=C(C)[C@@H]1CC[C@]2(C(=O)O)CC[C@]3(C)[C@H](C[C@@H](O)[C@@H]4[C@@]5(C)C(CC(=O)O)OC(C)(C)C5CC[C@]43C)[C@@H]12 (stereo partly specified)

pIC50 [1]: 8.75
Compound: CC(C)n1cnnc1-c1cccc(N2Cc3cc(-n4cnc(C5CC5)c4)ccc3C2=O)n1

pIC50 [3]: 8.00
Compound: Cc1cc(F)c(C(=O)Nc2cccc(-c3nnc4n3CCS(=O)(=O)C4)n2)cc1-n1cnc(C2CC2)c1

pIC50 [3]: 8.21
Compound: Cc1cc(F)c(C(=O)Nc2cccc(-c3nnc4n3CCOC4)n2)cc1-n1cnc(C2CC2)c1

pIC50 [10]: < 7.00
Compound: Cc1cc(F)c(C(=O)Nc2cccc(-c3nnc4n3CCCC4)n2)cc1-n1cc(C2CC2)nn1

pIC50 [1]: > 8.00
Compound: CC(C)n1cnnc1-c1cccc(NC(=O)c2cc3c(cc2F)CCCc2nc(C4CC4)cn2-3)n1

pIC50 [6]: ≥ 7.30
pEC50 [5]: ≥ 7.30
Compound: C[C@H](CO)n1cnnc1-c1cccc(N2CCN(c3ccc(C(=O)N4CCCCC4)cn3)C2=O)n1

pIC50 [1]: < 7.30
Compound: CC(C)n1cnnc1-c1nc(NC(=O)c2cc3c(cc2F)CCCc2nc(C4CC4)cn2-3)cs1

pIC50 [3]: 8.11
Compound: Cc1cc(F)c(C(=O)Nc2cccc(-c3nnc4ccccn34)n2)cc1-n1cnc(C2CC2)c1

pEC50 [11]: 8.47
Papp A→B [12]: 3.1 ×10⁻⁶ cm/s
half-life [13]: 35.4 min
bioavailability [14]: 11%
Compound: CC(C)n1cnnc1-c1cccc(NC(=O)c2cccc(-n3cnc(C4CC4)c3)c2)n1

pIC50 [1]: 8.66
Compound: Cc1cc2c(cc1-n1cnc(C3CC3)c1)C(=O)N(c1cccc(-c3nncn3C(C)C)n1)CC2

pIC50 [3]: 7.74
pIC50 [10]: ≥ 7.00
Compound: Cc1cc(F)c(C(=O)Nc2cccc(-c3nnc4n3CCCC4)n2)cc1-n1cnc(C2CC2)c1

pIC50 [1]: 8.49
Compound: CC(C)n1cnnc1-c1cccc(N2C(=O)c3ccc(-n4cnc(C5CC5)c4)cc3C2(C)C)n1

pIC50 [10]: ≥ 7.00
Compound: Cc1cc(F)c(C(=O)Nc2cccc(-c3nnc4n3CCCC4)n2)cc1-n1cnc(C2CC2)n1

pIC50 [1]: 8.23
Compound: CC(C)n1cnnc1-c1cccc(N2CC(C)(C)c3ccc(-n4cnc(C5CC5)c4)cc3C2=O)n1
